From PubChem BioAssay AID330 (DTP/NCI, 2004)
Inconclusive results and toxic doses are left out.

System: P388 leukemia ip, CD2F1 mice, survival T/C
Assay: NCI In Vivo Anticancer Drug Screen. Data for tumor model P388 Leukemia (intraperitoneal) in CD2F1 (CDF1) mice
Conditions: endpoint: median survival time, higher = longer survival
Outline: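 Mice carrying the transplanted tumor received test compound or vehicle. Survival was recorded in each group, and the value is the treated-group measurement divided by that of the vehicle-treated control group.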

[1] = dose: 100.0 mg/kg/injection, schedule: Q04DX003 (ip), vehicle: saline with Tween-80
[2] = dose: 200.0 mg/kg/injection, schedule: Q04DX003 (ip), vehicle: saline with Tween-80
[3] = dose: 400.0 mg/kg/injection, schedule: Q04DX003 (ip), vehicle: saline with Tween-80
[4] = dose: 100.0 mg/kg/injection, schedule: Q04DX003 (ip), vehicle: saline
[5] = dose: 50.0 mg/kg/injection, schedule: Q01DX005 (ip), vehicle: Klucel (hydroxypropylcellulose) (HPC)
[6] = dose: 100.0 mg/kg/injection, schedule: Q01DX005 (ip), vehicle: Klucel (hydroxypropylcellulose) (HPC)
[7] = dose: 200.0 mg/kg/injection, schedule: Q01DX005 (ip), vehicle: Klucel (hydroxypropylcellulose) (HPC)
[8] = dose: 25.0 mg/kg/injection, schedule: Q01DX009 (ip), vehicle: Klucel (hydroxypropylcellulose) (HPC)
[9] = dose: 50.0 mg/kg/injection, schedule: Q01DX009 (ip), vehicle: Klucel (hydroxypropylcellulose) (HPC)
[10] = dose: 100.0 mg/kg/injection, schedule: Q01DX009 (ip), vehicle: Klucel (hydroxypropylcellulose) (HPC)
[11] = dose: 50.0 mg/kg/injection, schedule: Q01DX005 (ip), vehicle: saline with Tween-80
[12] = dose: 100.0 mg/kg/injection, schedule: Q01DX005 (ip), vehicle: saline with Tween-80
[13] = dose: 200.0 mg/kg/injection, schedule: Q01DX005 (ip), vehicle: saline with Tween-80
[14] = dose: 50.0 mg/kg/injection, schedule: Q01DX009 (ip), vehicle: saline with Tween-80
[15] = dose: 100.0 mg/kg/injection, schedule: Q01DX009 (ip), vehicle: saline with Tween-80
[16] = dose: 200.0 mg/kg/injection, schedule: Q01DX009 (ip), vehicle: saline with Tween-80
[17] = dose: 60.0 mg/kg/injection, schedule: Q01DX005 (ip), vehicle: saline with Tween-80
[18] = dose: 12.5 mg/kg/injection, schedule: Q01DX009 (ip), vehicle: water
[19] = dose: 25.0 mg/kg/injection, schedule: Q01DX009 (ip), vehicle: water
[20] = dose: 50.0 mg/kg/injection, schedule: Q01DX009 (ip), vehicle: water
[21] = dose: 100.0 mg/kg/injection, schedule: Q01DX009 (ip), vehicle: water
[22] = dose: 200.0 mg/kg/injection, schedule: Q01DX009 (ip), vehicle: water

For `NC(=O)NC1CCCCCC1`, the T/C [1] was 100 % of control, the T/C [2] was 100 % of control and the T/C [3] was 109 % of control.
For `COc1ccc(-c2c(N)cnc(C)c2C)c(OC)c1OC`, the T/C (dose: 12.5 mg/kg/injection, schedule: Q01DX009 (ip), vehicle: other) was 107 % of control, the T/C (dose: 25.0 mg/kg/injection, schedule: Q01DX009 (ip), vehicle: other) was 107 % of control and the T/C (dose: 50.0 mg/kg/injection, schedule: Q01DX009 (ip), vehicle: other) was 99 % of control. For the same compound, the T/C (dose: 100.0 mg/kg/injection, schedule: Q01DX009 (ip), vehicle: other) was 87 % of control.
In the case of `O=c1[nH]c(=O)c2cc([N+](=O)[O-])cc([N+](=O)[O-])c2[nH]1`, the T/C (dose: 50.0 mg/kg/injection, schedule: Q04DX003 (ip), vehicle: saline) is reported as 118 % of control and the T/C [4] is reported as 89 % of control.
With `Cn1c(C(=O)N/N=C/C23OC(C)(C)OC2OCC2OC(C)(C)OC23)cc2cc(OCc3ccccc3)ccc21` (configuration not stated) the T/C [5] was 92 % of control, the T/C [6] was 101 % of control and the T/C [7] was 90 % of control.
With `COc1ccc(-c2cc(-c3ccccc3)[nH]c(=O)c2N(C)C)cc1` the T/C [8] was 90 % of control, the T/C [9] was 89 % of control and the T/C [10] was 89 % of control. For the same compound, the T/C (dose: 200.0 mg/kg/injection, schedule: Q01DX009 (ip), vehicle: Klucel (hydroxypropylcellulose) (HPC)) was 86 % of control.
For `ClCCn1c(CCl)nc2ccc(Cl)cc21`, the T/C (dose: 3.12 mg/kg/injection, schedule: Q01DX009 (ip), vehicle: Klucel (hydroxypropylcellulose) (HPC)) was 93 % of control, the T/C (dose: 6.25 mg/kg/injection, schedule: Q01DX009 (ip), vehicle: Klucel (hydroxypropylcellulose) (HPC)) was 101 % of control and the T/C (dose: 12.5 mg/kg/injection, schedule: Q01DX009 (ip), vehicle: Klucel (hydroxypropylcellulose) (HPC)) was 100 % of control. The T/C [8] was 100 % of control.
`CC(CO)(CO)N1C(=O)c2cccc3cc([N+](=O)[O-])cc(c23)C1=O` was tested, and the T/C [11] was 114 % of control, the T/C [12] was 105 % of control and the T/C [13] was 107 % of control.
For `COC(=O)C1c2ccccc2CC(=O)N1NC(C)=O` (configuration not stated), the T/C [9] was 104 % of control and the T/C [10] was 101 % of control.
With `COc1cc2nc(C)[n+]3nc([O-])ccc3c2cc1OC` the T/C (dose: 60.0 mg/kg/injection, schedule: Q01DX005 (ip), vehicle: suspension in saline) was 112 % of control, the T/C (dose: 120.0 mg/kg/injection, schedule: Q01DX005 (ip), vehicle: suspension in saline) was 104 % of control and the T/C (dose: 240.0 mg/kg/injection, schedule: Q01DX005 (ip), vehicle: suspension in saline) was 108 % of control.
For `NNC(=O)C(=O)N/N=C(/CC1(O)C(=O)Nc2ccccc21)c1ccc([N+](=O)[O-])cc1` (configuration not stated), the T/C [11] was 103 % of control, the T/C [12] was 94 % of control and the T/C [13] was 90 % of control.
In the case of `CC(O)C(c1ccccc1)S(C)(=O)=O` (configuration not stated), the T/C (dose: 25.0 mg/kg/injection, schedule: Q01DX009 (ip), vehicle: saline with Tween-80) is reported as 101 % of control, the T/C [14] is reported as 110 % of control and the T/C [15] is reported as 116 % of control. For the same compound, the T/C [16] was 113 % of control.
For `COC(=O)c1cc2cc3ccccc3cc2cc1C(=O)OC`, the T/C (dose: 15.0 mg/kg/injection, schedule: Q01DX005 (ip), vehicle: saline with Tween-80) was 100 % of control, the T/C (dose: 30.0 mg/kg/injection, schedule: Q01DX005 (ip), vehicle: saline with Tween-80) was 101 % of control and the T/C [17] was 102 % of control.
In the case of `COC(=O)c1ccc(N2C(=O)C=CC2=O)cc1`, the T/C (dose: 0.75 mg/kg/injection, schedule: Q01DX009 (ip), vehicle: saline with Tween-80) is reported as 100 % of control, the T/C (dose: 1.5 mg/kg/injection, schedule: Q01DX009 (ip), vehicle: saline with Tween-80) is reported as 100 % of control and the T/C (dose: 3.0 mg/kg/injection, schedule: Q01DX009 (ip), vehicle: saline with Tween-80) is reported as 120 % of control.
With `COC1=CC(=[O+]C)/C(=C/c2c(OC)cc(OC)cc2OC)C(OC)=C1` the T/C [14] was 94 % of control, the T/C [15] was 86 % of control and the T/C [16] was 86 % of control.
With `C=C1C(=O)O[C@@H]2CCC[C@H]12` the T/C [18] was 105 % of control, the T/C [19] was 112 % of control and the T/C [20] was 112 % of control. The T/C [21] was 108 % of control and the T/C [22] was 112 % of control.
With `c1ccc(OC2CCCCC2N2CCOCC2)cc1` (configuration not stated) the T/C (dose: 50.0 mg/kg/injection, schedule: Q01DX009 (ip), vehicle: suspension in saline) was 87 % of control, the T/C (dose: 100.0 mg/kg/injection, schedule: Q01DX009 (ip), vehicle: suspension in saline) was 87 % of control and the T/C (dose: 200.0 mg/kg/injection, schedule: Q01DX009 (ip), vehicle: suspension in saline) was 94 % of control.
With `CCOc1cc2c(cc1C(C)c1ccc(OCc3ccccc3)cc1)OCO2` (configuration not stated) the T/C [5] was 88 % of control, the T/C [6] was 96 % of control and the T/C [7] was 91 % of control.
`CCOC(=O)C(=CN(C)c1ccccc1)C(=O)OCC` was tested, and the T/C [14] was 108 % of control, the T/C [15] was 108 % of control and the T/C [16] was 101 % of control.
For `O=C(Nc1ccc(N=C(c2ccccc2)N2CCOCC2)cc1)c1ccc(C(=O)Nc2ccc(N=C(c3ccccc3)N3CCOCC3)cc2)cc1`, the T/C (dose: 25.0 mg/kg/injection, schedule: Q01DX005 (ip), vehicle: Klucel (hydroxypropylcellulose) (HPC)) was 101 % of control, the T/C [5] was 101 % of control and the T/C [6] was 93 % of control. The T/C [7] was 96 % of control.
`COc1ccc(C2C3CCCC(C3=O)C(c3ccc(OC)cc3)N2C)cc1` (configuration not stated) was tested, and the T/C [4] was 99 % of control, the T/C (dose: 200.0 mg/kg/injection, schedule: Q04DX003 (ip), vehicle: saline) was 97 % of control and the T/C (dose: 400.0 mg/kg/injection, schedule: Q04DX003 (ip), vehicle: saline) was 96 % of control.
`O=[n+]1c2c(n([O-])c3ccccc31)CCCCC2` was tested, and the T/C [1] was 99 % of control, the T/C [2] was 101 % of control and the T/C [3] was 92 % of control.
In the case of `NC(=O)c1cnn(CCOS(=O)(=O)O)c1N`, the T/C [18] is reported as 103 % of control, the T/C [19] is reported as 101 % of control and the T/C [20] is reported as 108 % of control. The T/C [21] was 107 % of control and the T/C [22] was 103 % of control.
In the case of `COc1cc2c(cc1OC)C13CCN4CC5=CCOC6CC(=O)N2C1C6C5C3C4` (configuration not stated) (tested in a mixture with another compound), the T/C (dose: 12.5 mg/kg/injection, schedule: Q01DX005 (ip), vehicle: saline) is reported as 90 % of control, the T/C (dose: 25.0 mg/kg/injection, schedule: Q01DX005 (ip), vehicle: saline) is reported as 95 % of control and the T/C (dose: 50.0 mg/kg/injection, schedule: Q01DX005 (ip), vehicle: saline) is reported as 98 % of control.
With `COc1cc2c(cc1OC)[C@H](Cc1ccc(Oc3cc4c(cc3O)-c3c(OC)c(OC)cc5c3[C@@H](C4)N(C)CC5)cc1)N(C)CC2` the T/C (dose: 11.88 mg/kg/injection, schedule: Q01DX005 (ip), vehicle: Klucel (hydroxypropylcellulose) (HPC)) was 98 % of control, the T/C (dose: 23.75 mg/kg/injection, schedule: Q01DX005 (ip), vehicle: Klucel (hydroxypropylcellulose) (HPC)) was 92 % of control and the T/C (dose: 47.5 mg/kg/injection, schedule: Q01DX005 (ip), vehicle: Klucel (hydroxypropylcellulose) (HPC)) was 93 % of control. For the same compound, the T/C (dose: 95.0 mg/kg/injection, schedule: Q01DX005 (ip), vehicle: Klucel (hydroxypropylcellulose) (HPC)) was 105 % of control.
With `O=C(/C=C/c1ccccc1)Cc1nc2nnc(NC(=O)Nc3ccc(Cl)cc3)n2[nH]c1=O` the T/C [17] was 99 % of control, the T/C (dose: 120.0 mg/kg/injection, schedule: Q01DX005 (ip), vehicle: saline with Tween-80) was 94 % of control and the T/C (dose: 240.0 mg/kg/injection, schedule: Q01DX005 (ip), vehicle: saline with Tween-80) was 102 % of control.
`CNC(=O)OCc1c(COC(=O)NC)c(-c2ccc(S(=O)(=O)c3ccccc3)cc2)n(C)c1C` was tested, and the T/C (dose: 12.5 mg/kg/injection, schedule: Q01DX009 (ip), vehicle: distilled water + Tween-80) was 154 % of control, the T/C (dose: 40.0 mg/kg/injection, schedule: Q01DX009 (ip), vehicle: distilled water + Tween-80) was 153 % of control and the T/C (dose: 50.0 mg/kg/injection, schedule: Q01DX009 (ip), vehicle: distilled water + Tween-80) was 100 % of control. For the same compound, the T/C (dose: 80.0 mg/kg/injection, schedule: Q01DX009 (ip), vehicle: distilled water + Tween-80) was 153 % of control.
